Laboratory results: patent publication US20220249534A1, “METHOD OF TREATING CANCER WITH NUCLEOTIDE THERAPEUTICS” (Massachusetts Institute of Technology, priority 2021, published 2022)
Like-named read-outs stand apart in the source and are kept apart here.

What was measured:
[1] = tested on: A549 cells; assay: Proliferation rate of A549 cells with added single nucleoside/base; assay type: cell-based, human; details: for IC50: Homo sapiens
Method: (§1) This effect was dose-titratable over a 0.1 mM to 2.0 mM range, with increasing concentrations of multiple single nucleotides completely preventing cell proliferation.
(§2) In Table 1, the approximate concentration of each nucleotide that when added slows the proliferation of the indicated cells by half is shown.
(§3) All adherent and human leukemia cell lines were cultured in DMEM or RPMI supplemented with 10% heat inactivated fetal bovine serum at 37° C. with 5% CO2. The Lys-GFP-ER-HoxA9 63.3 cells were cultured in RPMI supplemented with 10% fetal bovine serum, stem cell factor, and beta-estradiol as described previously (Sykes et al., (2016), Cell. 167(1): 171-186.e15). All cell lines regularly tested negative for mycoplasma.
(§4) To assess proliferation, the number of cells seeded for each cell line allowed for exponential growth over the course of the assay. To assess effects of nucleotide treatment, cells were washed three times with PBS and 4 mL of treatment media was added one day after plating cells. The following formula was used to calculate proliferation rate:
(§5) Doublings per day=[Log2(Final day 4 cell count/Initial day 0 cell count)]/4 days

[2] = tested on: 143B cells; assay: Proliferation rate of 143B cells with added single nucleoside/base; assay type: cell-based; details: Homo sapiens, read-out: Added nucleoside/base concentration that slows proliferation by half
Method: as §1, §2, §3, §4, §5

[3] = tested on: H1299 cells; assay: Proliferation rate of H1299 cells with added single nucleoside/base; assay type: cell-based; details: Homo sapiens
Method: as §1, §2, §3, §4, §5

[4] = tested on: A2780 cells; assay: Proliferation rate of A2780 cells with added single nucleoside/base; assay type: cell-based; details: Homo sapiens
Method: as §1, §2, §3, §4, §5

[5] = tested on: U2OS cells; assay: Proliferation rate of U2OS cells with added single nucleoside/base; assay type: cell-based; details: Homo sapiens, read-out: Added nucleoside/base concentration that slows proliferation by half
Method: as §1, §2, §3, §4, §5

[6] = tested on: MDA-MB-468 cells; assay: Proliferation rate of MDA-MB-468 cells with added single nucleoside/base; assay type: cell-based; details: Homo sapiens
Method: as §1, §2, §3, §4, §5

[7] = tested on: 63.3 cells; assay: Differentiation of Lys-GFP-ER-HoxA9 63.3 cells by flow cytometry; assay type: cell-based; details: 10^-3 to 10^-7 M, FIG. 4A
Method: (§6) That exogenous nucleotides can direct cancer cells to undergo differentiation was determined as follows. Thymidine was added at concentrations ranging from 10^−3 to 10^−7 M to 63.3 cells (FIG. 4A), THP1 cells (FIG. 4B) and U937 cells (FIG. 4C). Cell differentiation was monitored by CD11b+/CD16+ expression, and by CD11b+ total expression.
as §3
(§7) The Lys-GFP-ER-HoxA9 cells or human leukemia cell lines were grown in round-bottom tissue-culture treated plates. Following a 4-day incubation with nucleotides, cells were incubated with antibodies, washed, incubated with FACS buffer containing DAPI, and analyzed by flow cytometry. Viability was assessed by forward and side scatter as well as by DAPI exclusion. For the Lys-GFP-ER-HoxA9 63.3 cells, differentiation was assessed by GFP and staining with an anti-CD11b-APC antibody (final concentration of 1:400; Clone M1/70, Biolegend). […]

[8] = tested on: THP1 cells; assay: Differentiation of THP1 cells by flow cytometry; assay type: cell-based, human; details: 10^-3 to 10^-7 M, FIG. 4B
Method: as §6, §3, §7

[9] = tested on: U937 cells; assay: Differentiation of U937 cells by flow cytometry; assay type: cell-based, human; details: 10^-3 to 10^-7 M, FIG. 4C
Method: as §6, §3, §7

[10] = tested on: A549 cells; assay: LCMS analysis of intracellular nucleotide levels in A549 cells; assay type: cell-based, human
Method: Where indicated, cells were incubated in media with 4 mM ^15N-amide-glutamine and/or 200 μM ^13C-guanine or ^13C-adenine for 24 hours prior to LCMS Analysis of metabolites. For assessment of metabolites, cells were washed three times with PBS prior to extracting polar metabolites from cells: plates were placed on ice, cells were washed with ice-cold blood bank saline, and 500 μl of ice-cold 80% methanol in water with 250 nM ^13C/^15N labeled amino acid standards (MSK-A2-1.2: Cambridge Isotope Laboratories, Inc.) was added to each well. Cells were scraped, each sample was vortexed for 10 minutes at 4° C., and then centrifuged at maximum speed for 10 minutes at 4° C. Samples were dried under nitrogen gas and resuspended in 25 μl of a 50/50 acetonitrile/water mixture. Metabolites were measured using a Dionex UltiMate 3000 ultra-high performance liquid chromatography system connected to a Q Exactive benchtop Orbitrap mass spectrometer, equipped with an Ion Max source and a HESI II probe (Thermo Fisher Scientific). […]
Metabolites were monitored in full-scan, polarity-switching, mode. […] Relative quantitation of metabolites was performed with XCalibur QuanBrowser 2.2 (Thermo Fisher Scientific) using a 5 ppm mass tolerance and referencing an in-house retention time library of chemical standards. […]

[11] = tested on: Chk1 and Chk2; assay: Replication stress signaling: phosphorylation of ATR/ATM targets Chk1 and Chk2; assay type: cell-based; details: stronger signaling at higher concentrations
Description: To determine if nucleotide imbalance causes replication stress in a cancer cell, targets of the ATR and ATM kinases were examined after the addition of a nucleotide to change the internal nucleotide ratio. The ATR and ATM kinases are components of the cellular response to DNA damage, and sense single-stranded DNA and DNA double-strand breaks, respectively. The respective targets of ATR and ATM, Chk1 and Chk2, are major effectors of the DNA damage response. […] The appearance of p-Chk1 occurred first between 12 hours and 24 hours of guanine treatment, followed by the appearance of p-Chk2 between 48 hours and 72 hours. Induction of the replication stress response was reversed by addition of adenine together with guanine. A similar induction of ATR and ATM signaling occurred with any excess nucleotide supplementation that impaired S phase progression, but not with leucine deprivation, consistent with impaired DNA replication. Inhibiting total purine or pyrimidine synthesis induced phosphorylation of Chk1 and Chk2 but to a lesser extent than Guanosine treatment.

[12] = Comet tail assay of DNA damage; assay type: cell-based; details: 24 hours; small fraction of treated cells
Description: The cancer cell is contacted with that amount of purine, purine precursor, purine analog, pyrimidine, pyrimidine precursor, and/or pyrimidine which, once entering the cell, changes the cell's internal baseline purine:pyrimidine ratio and induces replication stress in the cell. The induction of replication stress can be measured, in any way known in the art, e.g., with the Comet assay which measures DNA damage. In this assay, cells are mixed in low melting point agarose on a microscope slide and are lysed with a detergent, e.g., 1% N-lauryl sarcosine, 0.5% Triton X-100, DMSO, and high salt, e.g., 2.5 M NaCl, 0.1 M EDTA and 10 mM Tris, to form nucleoids containing supercoiled loops of DNA that are linked to the nuclear matrix. After electrophoresis at high pH structures can be observed resembling comets, visualized by fluorescence microscopy. The intensity of the comet tail relative to the head is proportional to the number of breaks in the DNA. Comets can be scored with dedicated software such as, but not limited to, CaspLab software or OpenComet software.

[13] = A549 cells, approximate concentration, read-out: Added nucleoside/base concentration that slows proliferation by half
[14] = 143B cells, approximate concentration
[15] = NCI-H1299, H1299 cells, approximate concentration, read-out: Added nucleoside/base concentration that slows proliferation by half
[16] = A2780 cells, approximate concentration, read-out: Added nucleoside/base concentration that slows proliferation by half
[17] = U2OS cells, approximate concentration
[18] = MDA-MB-468 cells, approximate concentration, read-out: Added nucleoside/base concentration that slows proliferation by half

| SMILES | IC50 [1, 13] | IC50 [2, 14] | IC50 [3, 15] | IC50 [4, 16] | IC50 [5, 17] | IC50 [6, 18] | other results |
| --- | --- | --- | --- | --- | --- | --- | --- |
| Nc1ncnc2c1ncn2[C@@H]1O[C@H](CO)[C@@H](O)[C@H]1O [A, adenosine] | 2100 µM | 1000 µM | 1100 µM | 1000 µM | 950 µM | 800 µM |  |
| Nc1ncnc2c1ncn2[C@H]1C[C@H](O)[C@@H](CO)O1 [dA, deoxyadenosine] | 1200 µM | 600 µM | 800 µM | 300 µM | 600 µM | 225 µM |  |
| Nc1ccn([C@H]2C[C@H](O)[C@@H](CO)O2)c(=O)n1 [Deoxycytidine] |  |  |  |  |  |  | Effect on proliferation ([1]; A549 cells, FIG. 1B, higher concentrations): blocked proliferation |
| Cc1cn([C@H]2C[C@H](O)[C@@H](CO)O2)c(=O)[nH]c1=O [T, thymidine] | 500 µM |  | 700 µM | 300 µM | 500 µM | 150 µM | Cell differentiation (CD11b+ markers) [7]: induced cell differentiation in a concentration dependent manner; Cell differentiation (CD11b+/CD16+ and CD11b+ total expression) [8]: induced cell differentiation in a concentration dependent manner; Cell differentiation (CD11b+/CD16+ and CD11b+ total expression) [9]: induced cell differentiation in a concentration dependent manner |
| Nc1nc2nc[nH]c2c(=O)[nH]1 [G, guanine] |  |  |  |  |  |  | IC50 ([1]; A549, read-out: Added nucleoside/base concentration that slows proliferation by half): 80 µM; IC50 ([2]; 143B): 120 µM; IC50 ([3]; NCI-H1299, read-out: Added nucleoside/base concentration that slows proliferation by half): 200 µM; IC50 ([4]; A2780, read-out: Added nucleoside/base concentration that slows proliferation by half): 100 µM; IC50 ([5]; U2OS): 250 µM; IC50 ([6]; MDA-MB-468, read-out: Added nucleoside/base concentration that slows proliferation by half): 150 µM; Intracellular pools of guanylate nucleotides (GTP/GDP/GMP) ([10]; FIGS. 2A and 3A-3B): dramatically increased; Intracellular levels of adenylate nucleotides (ATP/ADP/AMP) ([10]; FIGS. 2B and 3C-3D): decreased; Phosphorylation of Chk1 and Chk2 (replication stress response) [11]: robust phosphorylation; DNA damage by comet tail assay [12]: minor increases in DNA damage |
